This data set in a line: Assay (IV) determination of solubility. In kind it is physicochemical. As for the experimental part:
ASSAY (IV)—Determination of Solubility
The polypeptide was dissolved in water at ˜500 nmol/ml and mixed 1:1 with a series of buffers (100 mM glycylglycine pH 3.0, 100 mM glycylglycine pH 4.0, 100 mM glycylglycine pH 5.0, 100 mM bistrispropane pH 6.0, 100 mM bistrispropane pH 6.5, 100 mM bistrispropane pH 7.0, 100 mM bistrispropane pH 7.5, 100 mM bistrispropane pH 8.0). After 18 hours at room temperature the samples were centrifuged and the polypeptide concentration determined by HPLC.

Where [1] appears, read: pH 3, pH 3.0, read-out: Solubility pH 3.0.
Where [2] appears, read: pH 4, pH 4.0, 18 hours at room temperature, Table 2, read-out: Solubility pH 4.0.
Where [3] appears, read: pH 4, pH 4.0, read-out: Solubility pH 4.0.
The mark [4] stands for this setting: pH 5, pH 5.0, read-out: Solubility pH 5.0.
The mark [5] stands for this setting: pH 6, pH 6.0, read-out: Solubility pH 6.0.
Where [6] appears, read: pH 6.5, pH 6.5, read-out: Solubility pH 6.5.
The mark [7] stands for this setting: pH 7, pH 7.0, read-out: Solubility pH 7.0.
The mark [8] stands for this setting: pH 7.5, pH 7.5, read-out: Solubility pH 7.5.
The mark [9] stands for this setting: pH 8, pH 8.0, read-out: Solubility pH 8.0.

Converted amounts (≈) assume the structure as drawn. Where two headings read alike, the source gives them in different places. Starred links: 1 amine or outer side, 2 acyl side, 3 side chain; linkers in the order of their positions; H or OH if unused. Positions of bridges follow the written chain, without caps; N, C: chain ends. Residues, ends and D or L forms follow the SMILES beside them. Groups on a side chain read outwards from the residue. *: point of attachment. C20 diacid = O=C(O)CCCCCCCCCCCCCCCCCCC(=O)*; γGlu = O=C(O)[C@H](CCC(=O)[*:2])N[*:1]; AEEA = NCCOCCOCC(=O)O Some results are limits rather than exact numbers.

Usually solubility stands for the dissolved amount per volume that the medium holds. With `CC[C@H](C)[C@H](NC(=O)[C@@H]1CCCN1C(=O)CNC(=O)[C@H](Cc1ccccc1)NC(=O)[C@H](CC(N)=O)NC(=O)[C@H](CO)NC(=O)[C@H](CO)NC(=O)[C@H](CO)NC(=O)[C@H](Cc1c[nH]cn1)NC(=O)[C@H](Cc1c[nH]cn1)NC(=O)[C@H](CC(C)C)NC(=O)[C@H](Cc1ccccc1)NC(=O)[C@H](CCC(=O)O)NC(=O)[C@H](C)NC(=O)[C@H](CC(C)C)NC(=O)[C@H](CCCNC(=N)N)NC(=O)[C@H](CCC(N)=O)NC(=O)[C@@H](NC(=O)[C@H](C)NC(=O)[C@@H]1CSSC[C@H](NC(=O)[C@H](Cc2c[nH]cn2)NC(=O)COCCOCCNC(=O)COCCOCCNC(=O)CC[C@H](NC(=O)CCCCCCCCCCCCCCCCCCC(=O)O)C(=O)O)C(=O)N[C@@H](CC(N)=O)C(=O)N[C@@H]([C@@H](C)O)C(=O)N[C@@H](C)C(=O)N[C@@H]([C@@H](C)O)C(=O)N1)[C@@H](C)O)C(=O)N[C@@H](CC(C)C)C(=O)N1CCC[C@H]1C(=O)N1CCC[C@H]1C(=O)N[C@H](C(=O)N[C@@H](CC(N)=O)C(=O)N[C@H](C(=O)NCC(=O)N[C@@H](CO)C(=O)N[C@@H](Cc1c[nH]cn1)C(=O)N[C@H](C(=O)N[C@@H](Cc1ccc(O)cc1)C(N)=O)[C@@H](C)O)C(C)C)[C@@H](C)O` [Example 119, N-alpha-[2-(2-{2-[2-(2-{2-[(S)-4-Carboxy-4-(19-carboxyheptadecanoylamino)butyrylamino]ethoxy}ethoxy)acetylamino]ethoxy}ethoxy)acetyl]-[His1,Glu14,His17,Ser21,His35]-pramlintide] ({C20 diacid-γGlu-AEEA-AEEA}-HCNTATCATQRLAEFLHHSSSNFGPILPPTNVGSHTY-NH2; disulfide 2-7), the solubility reads like this: under setting [1], above 200 µM; under setting [2], above 200 µM; under setting [3], above 200 µM; under setting [4], above 200 µM; under setting [5], 32 µM (≈ 152 µg/mL); under setting [6], 3 µM (≈ 14.3 µg/mL). For the same compound, the solubility is 13 µM (≈ 61.8 µg/mL) under setting [7], 114 µM (≈ 542 µg/mL) under setting [8] and above 200 µM under setting [9].

For the compound `CC[C@H](C)[C@H](NC(=O)[C@H](CCCCNC(=O)COCCOCCNC(=O)COCCOCCNC(=O)CC[C@H](NC(=O)CCCCCCCCCCCCCCCCCCC(=O)O)C(=O)O)NC(=O)CNC(=O)[C@H](Cc1ccccc1)NC(=O)[C@H](CC(N)=O)NC(=O)[C@H](CC(N)=O)NC(=O)[C@H](CO)NC(=O)[C@H](CO)NC(=O)[C@H](Cc1c[nH]cn1)NC(=O)[C@H](Cc1c[nH]cn1)NC(=O)[C@H](CC(C)C)NC(=O)[C@H](Cc1ccccc1)NC(=O)[C@H](CCC(=O)O)NC(=O)[C@H](C)NC(=O)[C@H](CC(C)C)NC(=O)[C@H](CCCNC(=N)N)NC(=O)[C@H](CCC(N)=O)NC(=O)[C@@H](NC(=O)[C@H](C)NC(=O)[C@@H]1CSSC[C@H](NC(=O)[C@@H](N)CCCCN)C(=O)N[C@@H](CC(N)=O)C(=O)N[C@@H]([C@@H](C)O)C(=O)N[C@@H](C)C(=O)N[C@@H]([C@@H](C)O)C(=O)N1)[C@@H](C)O)C(=O)N[C@@H](CC(C)C)C(=O)N[C@@H](CO)C(=O)N[C@@H](CO)C(=O)N[C@H](C(=O)N[C@@H](CC(N)=O)C(=O)N[C@H](C(=O)NCC(=O)N[C@@H](CO)C(=O)N[C@@H](Cc1c[nH]cn1)C(=O)N[C@H](C(=O)N[C@@H](Cc1ccc(O)cc1)C(N)=O)[C@@H](C)O)C(C)C)[C@@H](C)O` [Example 142, N-epsilon25-[2-(2-{2-[2-(2-{2-[(S)-4-Carboxy-4-(19-carboxyheptadecanoylamino)butyrylamino]ethoxy}ethoxy)acetylamino]ethoxy}ethoxy)acetyl]-[Glu14,His17,Lys25,Ser28,Ser29,His35]-pramlintide] (H-KCNTATCATQRLAEFLHHSSNNFGK([AEEA-AEEA-γGlu-C20 diacid])ILSSTNVGSHTY-NH2; disulfide 2-7), the solubility was above 200 µM under setting [1]; above 200 µM under setting [2]; above 200 µM under setting [3]; 185 µM (≈ 884 µg/mL) under setting [4]; 118 µM (≈ 564 µg/mL) under setting [5]; 1 µM (≈ 4.78 µg/mL) under setting [6]. Moreover, the solubility runs as follows: under setting [7], 1 µM (≈ 4.78 µg/mL); under setting [8], 1 µM (≈ 4.78 µg/mL).

As for `CC[C@H](C)[C@H](NC(=O)[C@@H]1CCCN1C(=O)CNC(=O)[C@H](Cc1ccccc1)NC(=O)[C@H](CC(N)=O)NC(=O)[C@H](CCC(N)=O)NC(=O)[C@H](CO)NC(=O)[C@H](CO)NC(=O)[C@H](Cc1c[nH]cn1)NC(=O)[C@H](CCCNC(=N)N)NC(=O)[C@H](CC(C)C)NC(=O)[C@H](Cc1ccccc1)NC(=O)[C@H](CCC(=O)O)NC(=O)[C@H](C)NC(=O)[C@H](CC(C)C)NC(=O)[C@H](CCCNC(=N)N)NC(=O)[C@H](CCC(N)=O)NC(=O)[C@@H](NC(=O)[C@H](C)NC(=O)[C@@H]1CSSC[C@H](NC(=O)[C@H](CCCNC(=N)N)NC(=O)[C@H](CCC(=O)O)NC(=O)[C@H](CCC(=O)O)NC(=O)CC[C@H](NC(=O)CCCCCCCCCCCCCCCCCCC(=O)O)C(=O)O)C(=O)N[C@@H](CC(N)=O)C(=O)N[C@@H]([C@@H](C)O)C(=O)N[C@@H](C)C(=O)N[C@@H]([C@@H](C)O)C(=O)N1)[C@@H](C)O)C(=O)N[C@@H](CC(C)C)C(=O)N1CCC[C@H]1C(=O)N1CCC[C@H]1C(=O)N[C@H](C(=O)N[C@@H](CCC(N)=O)C(=O)N[C@H](C(=O)NCC(=O)N[C@@H](CO)C(=O)N[C@@H](CCC(N)=O)C(=O)N[C@H](C(=O)N1CCC[C@H]1C(N)=O)[C@@H](C)O)C(C)C)[C@@H](C)O` [Example 159, N-alpha-[(S)-4-Carboxy-4-(19-carboxynonadecanoylamino)butyryl]-Glu-Glu-[Arg1,Glu14,Arg17,Gln21,Gln31,Gln35,Pro37]-pramlintide] ({C20 diacid-γGlu}-EERCNTATCATQRLAEFLRHSSQNFGPILPPTQVGSQTP-NH2; disulfide 4-9), the solubility by setting is: under setting [1], above 200 µM; under setting [2], above 200 µM; under setting [3], above 200 µM; under setting [4], above 200 µM; under setting [5], above 200 µM; under setting [6], above 200 µM. Moreover, the solubility is, setting by setting: (pH 7, pH 7.0, 18 hours at room temperature, Table 3, read-out: Solubility pH 7.0) above 200 µM; under setting [7], above 200 µM; under setting [8], above 200 µM; under setting [9], above 200 µM.

Regarding `CC[C@H](C)[C@H](NC(=O)[C@@H]1CCCN1C(=O)CNC(=O)[C@H](Cc1ccccc1)NC(=O)[C@H](CC(N)=O)NC(=O)[C@H](CCCCNC(=O)COCCOCCNC(=O)COCCOCCNC(=O)CC[C@H](NC(=O)CCCCCCCCCCCCCCCCCCC(=O)O)C(=O)O)NC(=O)[C@H](CO)NC(=O)[C@H](CO)NC(=O)[C@H](CCCNC(=N)N)NC(=O)[C@H](Cc1c[nH]cn1)NC(=O)[C@H](CC(C)C)NC(=O)[C@H](Cc1ccccc1)NC(=O)[C@H](CCC(=O)O)NC(=O)[C@H](C)NC(=O)[C@H](CC(C)C)NC(=O)[C@H](CCCNC(=N)N)NC(=O)[C@H](CCC(N)=O)NC(=O)[C@@H](NC(=O)[C@H](C)NC(=O)[C@@H]1CSSC[C@H](NC(=O)[C@@H](N)CCCNC(=N)N)C(=O)N[C@@H](CC(N)=O)C(=O)N[C@@H]([C@@H](C)O)C(=O)N[C@@H](C)C(=O)N[C@@H]([C@@H](C)O)C(=O)N1)[C@@H](C)O)C(=O)N[C@@H](CC(C)C)C(=O)N1CCC[C@H]1C(=O)N1CCC[C@H]1C(=O)N[C@H](C(=O)N[C@@H](CC(N)=O)C(=O)N[C@H](C(=O)NCC(=O)N[C@@H](CO)C(=O)N[C@@H](CC(N)=O)C(=O)N[C@H](C(=O)N[C@@H](Cc1ccc(O)cc1)C(N)=O)[C@@H](C)O)C(C)C)[C@@H](C)O` [Example 14, N-epsilon21-[2-(2-{2-[2-(2-{2-[(S)-4-Carboxy-4-(19-carboxyheptadecanoylamino)butyrylamino]ethoxy}ethoxy)acetylamino]ethoxy}ethoxy)acetyl]-[Arg1,Glu14,His17,Arg18,Lys21]-pramlintide] (H-RCNTATCATQRLAEFLHRSSK([AEEA-AEEA-γGlu-C20 diacid])NFGPILPPTNVGSNTY-NH2; disulfide 2-7), the solubility under setting [1] is above 200 µM; the solubility under setting [2] is above 200 µM; the solubility under setting [3] was above 200 µM; the solubility under setting [4] was above 200 µM; the solubility under setting [5] was 192 µM (≈ 923 µg/mL); the solubility under setting [6] is 102 µM (≈ 490 µg/mL). In addition, the solubility is, setting by setting: under setting [7], 13 µM (≈ 62.5 µg/mL); under setting [8], 7 µM (≈ 33.7 µg/mL); under setting [9], 47 µM (≈ 226 µg/mL).

The values are drawn from patent US8722849B2, “Polypeptides” (Novo Nordisk A/S, priority 2011, dated 2014).
